This is an account of results in publication PMC9308172 (Journal of medicinal chemistry, 2017).

The assay addresses M2TMS31N (Influenza A virus, UniProt P0DOF5, S31N). In kind it is binding, influenza A (A/Udorn/307/72, S31N mutant). As to conditions: for binding to M2TMS31N according to ITC (in words): pH 8.

Structures are written as SMILES.

Consider `CCCC1(N)C2CC3CC(C2)CC1C3` (centres unmarked) [Compound 5], for which the “binding to M2TMS31N according to ITC (in words)” value is recorded as “bind weakly”.

On to `C1CNC2(C1)C1CC3CC(C1)CC2C3` (centres unmarked) [Compound 6], for which the ΔG was -6.68 ± 0.296 kcal/mol and the “binding to M2TMS31N according to ITC (in words)” value was “bind weakly”.

The compound `NC1(C23CC4CC(CC(C4)C2)C3)CCCC1` [Compound 9] returned a ΔG of -6.745 ± 0.229 kcal/mol.

Compound `NC1(C23CC4CC(CC(C4)C2)C3)CCCCC1` [Compound 10, 1-(1-Adamantyl)cyclohexanamine] registered a ΔG of -7.029 ± 0.308 kcal/mol.
